Test results published in patent US9174933B2.

Assay: Dynamic Vapor Sorption/Desorption (DVS)
Assay type: physicochemical
Conditions: 5% to 95% relative humidity at 10% RH intervals, nitrogen purge
Experimental: Moisture sorption/desorption data were collected on a VTI SGA-100 Vapor Sorption Analyzer. Sorption and desorption data were collected over a range of 5% to 95% relative humidity (RH) at 10% RH intervals under a nitrogen purge. Samples were not dried prior to analysis. Equilibrium criteria used for analysis were less than 0.0100% weight change in 5 minutes, with a maximum equilibration time of 3 hours if the weight criterion was not met. Data were not corrected for the initial moisture content of the samples. Sodium chloride and polyvinypyrrolidine were used as calibration standards.

- weight change during moisture sorption/desorption: negligible weight change
Structure (SMILES): COc1cc(F)c(F)c(Nc2ccc(I)cc2F)c1NS(=O)(=O)C1(C[C@H](O)CO)CC1 [Form A]
